Here are results for two substances from patent publication US9255258B2 (priority 2009, dated 2016).

Where two headings read alike, the source gives them in different places.

Assay [1] deals with Phi29 (exo-) (D169A mutant) (Bacillus phage phi29, UniProt P03680, D169A). As to the method: Base Reading Mix: 50 mM Tris (pH 7.5), 50 mM NaCl, 5 mM CaCl2, 0.2% BSA, 80 μg/mL glucose oxidase; 2000 U/mL Katalase; 1 mM Trolox; 0.5% glucose; 250 nM Phi29 (exo-) (D169A mutant), 500 nM non-hydrolyzable nucleotide (AF647-C6 alkyl linker-alpha-thio-dA4P nucleotide analog, labeled at the terminal phosphate with ALEXA FLUOR 647).
Commercial nanoparticles (605 ITK SAV quantum dots, Invitrogen, catalog # Q10001MP) were immobilized onto PEG/PEG-biotin coverslip surfaces at 5 pM for 4 minutes. The surface-immobilized nanoparticles were saturated with hairpin molecules via the biotin in the loop.
All the transient-binding and extension steps as well as the protocols and the imaging conditions were identical to the ones described in Example 8 above (6-Base Extension, 2-Color Sequencing, in the Presence of Calcium). In this experiment only one non-hydrolyzable-AF647-dA4P were used in all transient-binding steps.
The transient-binding reaction steps, using labeled non-hydrolyzable nucleotides steps, were conducted at room temperature and included: • 1.

The next assay deals with Klenow (exo-) (Escherichia coli, UniProt P00582, D355A/E357A). Conditions: P2-1 primer (template nucleotide A); 200 nM each of four base-labeled nucleotides, 250 nM Klenow (exo-), 10 mM CaCl2.

Protocol for Klenow (exo-): The following procedure was conducted using a SOLID sequencing instrument (SOLiD 0025) (Applied Biosystems, Foster City, Calif.), and template/primer duplexes immobilized on SOLiD S3 clonal beads, SOLiD flowcells, and Klenow polymerase.
Seven μM of the P2 primer, in 1×SSPE (150 mM NaCl, 10 mM sodium phosphate, 1 mM EDTA), was added to a SOLiD flowcell containing beads/template immobilized on a glass slide, at 25° C., then hybridized at 75° C. for 1 minute, 70° C. for 2 minutes, 65° C. for 2 minutes, 60° C. for 2 minutes, and washed with 1× Instrumentation Buffer (AB Part No. 4389784).
The labeled nucleotides were obtained from PerkinElmer Life and Analytical Science (Boston, Mass.): Cy5-dUTP, Cy3-dCTP, FAM-dGTP, and Texas Red (TxR)-dATP (base-labeled nucleotides). The Klenow fragment polymerase was obtained from New England Biolabs (No. M0212L, Ipswich, Mass.).
The beads were washed with 3 mL of Universal Buffer (50 mM NaCl, 10 mM Tris-HCl (pH 8), 10 mM CaCl2, 2 mM DTT). And 0.2 mL of Sensing Buffer Mix (200 nM each of Cy5-dUTP, Cy3-dCTP, Fam-dGTP, and Texas Red-dATP; 250 nM Klenow (exo-) in the Universal Buffer) was injected into the flowcell and incubated for 5 minutes at room temperature. […]

With “AF647-C6 alkyl linker-alpha-thio-dA4P nucleotide analog [alpha-thio-dA4P-AF647]”, the “signal from transiently-bound nucleotide” value in assay [1] (Base Reading Mix containing 5 mM MnCl2 (instead of CaCl2), correct nucleotide, 500 nM) is reported as “no detectable signal”; in assay [1] (after addition of CaCl2 (approximated 5-10 mM) to the manganese reaction, without washing), “detectable immediately upon addition of the calcium”.
For the substance Cy5-dUTP, the “bead fluorescence after wash” value at Klenow (exo-) is “fluoresce to a greater degree than the other dye-labeled nucleotides”.
